Tests used:
[1] = system: Candida albicans (白色念珠菌); assay: In vitro antibacterial effect, tube method (summary for the selected strains); settings: 1% solution mixed with MH broth
[2] = system: Escherichia coli 26 (大肠埃希氏菌26); assay: In vitro antibacterial effect, tube method; set-up: key to antibacterial effect: -: 有明显抑菌作用; +: 没有抑菌作用; settings: 1% solution mixed with MH broth
[3] = system: Candida albicans 12 (白色念珠菌12); assay: In vitro antibacterial effect, tube method; set-up: key: -: 有明显抑菌作用; +: 没有抑菌作用; settings: 1% solution mixed with MH broth with 5% glucose, 37°C, 24 h
[4] = system: beta-hemolytic streptococcus 96 (乙型链球菌96); assay: In vitro antibacterial effect, tube method; set-up: key to antibacterial effect: -: 有明显抑菌作用; +: 没有抑菌作用; settings: 1% solution mixed with MH broth with 5% defibrinated sheep blood
[5] = system: Staphylococcus epidermidis 26069 (表葡菌26069); assay: In vitro antibacterial effect, tube method; set-up: key to antibacterial effect: -: 有明显抑菌作用; +: 没有抑菌作用; settings: 1% solution mixed with MH broth
[6] = system: cervical erosion model rats (宫颈糜烂模型大鼠); assay: Therapeutic effect on cervical erosion model rats: degree of cervical inflammation / pathology; format: in vivo, rat; settings: intravaginal, 12 days, positive control 0.02 g/kg, Example 2 gel 0.1048 g/kg
[7] = system: Enterococcus faecalis 755 (粪肠球菌755); assay: In vitro antibacterial effect, tube method; set-up: key to antibacterial effect: -: 有明显抑菌作用; +: 没有抑菌作用; settings: 1% solution mixed with MH broth with 5% defibrinated sheep blood
[8] = system: Staphylococcus aureus 9776 (金葡菌9776); assay: In vitro antibacterial effect, tube method; set-up: key to antibacterial effect: -: 有明显抑菌作用; +: 没有抑菌作用; settings: 1% solution mixed with MH broth
[9] = system: Candida albicans 2 (白色念珠菌2); assay: In vitro antibacterial effect, tube method; set-up: key: -: 有明显抑菌作用; +: 没有抑菌作用; settings: 1% solution mixed with MH broth with 5% glucose, 37°C, 24 h
[10] = system: cervical erosion model rats (宫颈糜烂模型大鼠); assay: Therapeutic effect on cervical erosion model rats: body weight, vagina and cervix weight index, white blood cell count; format: in vivo, rat; settings: intravaginal, 12 days, positive control 0.02 g/kg, Example 2 gel 0.1048 g/kg
[11] = system: Candida albicans 10 (白色念珠菌10); assay: In vitro antibacterial effect, tube method; set-up: key: -: 有明显抑菌作用; +: 没有抑菌作用; settings: 1% solution mixed with MH broth with 5% glucose, 37°C, 24 h
[12] = system: Candida albicans 6 (白色念珠菌6); assay: In vitro antibacterial effect, tube method; set-up: key: -: 有明显抑菌作用; +: 没有抑菌作用; settings: 1% solution mixed with MH broth with 5% glucose, 37°C, 24 h
[13] = system: egg white (蛋清); assay: Astringent / coagulating effect on protein (precipitation of egg white); set-up: key to protein precipitation: -: 未见白色沉淀; +: 隐约可见白色沉淀; +: 有少量白色沉淀; ++: 有较多白色沉淀; +++: 有大量白色沉淀; settings: for protein precipitation: 0.2 ml added to 5 ml of 5% egg white
[14] = number of rats out of 8 per group

Structure (SMILES): Cc1ccc(S(=O)(=O)O)c(O)c1 [2-羟基-4-甲基苯磺酸]
- inhibitory effect (in words) [1]: 有明显的抑制作用
- inhibitory effect (in words) [2]: 有明显的抑制作用
- antibacterial effect ([2]; 37°C, 24 h): -
- antibacterial effect [3]: -
- antibacterial effect (in words) [4]: 没有抑菌作用
- antibacterial effect ([4]; 37°C, 24 h): +
- inhibitory effect (in words) [5]: 有明显的抑制作用
- antibacterial effect ([5]; 37°C, 24 h): -
- Ridit test u value ([6]; inflammation grade vs model group, * = significant difference): 2.8146
- inflammation degree grade: mild [6, 14]: 2
- inflammation degree grade: moderate [6, 14]: 1
- inflammation degree grade: normal [6, 14]: 4
- inflammation degree grade: severe [6, 14]: 1
- antibacterial effect (in words) [7]: 没有抑菌作用
- antibacterial effect ([7]; 37°C, 24 h): +
- inhibitory effect (in words) [8]: 有明显的抑制作用
- antibacterial effect ([8]; 37°C, 24 h): -
- antibacterial effect [9]: -
- body weight after test ([10]; 1 h after last dose, *P<0.05 vs model): 249.6 ± 26.7 g
- total white blood cell count ([10]; blood, after last dose, *P<0.05, **p<0.01 vs model): 5.74±0.88 10^9g/L
- vagina and cervix weight index ([10]; *P<0.05 vs model): 0.268±0.102 g/100g body weight
- antibacterial effect [11]: -
- antibacterial effect [12]: -
- threshold concentration for astringent coagulating effect on protein ([13]; concentration of the added solution): 0.39%
- astringent coagulating effect compared with tannic acid ([13]; same concentration): 弱于同浓度的鞣酸
- protein precipitation ([13]; test substance solution 0.098% (tube 10)): -
- protein precipitation ([13]; test substance solution 0.195% (tube 9)): -
- protein precipitation ([13]; test substance solution 0.78% (tube 7)): +
- protein precipitation ([13]; test substance solution 1.56% (tube 6)): +
- protein precipitation ([13]; test substance solution 3.125% (tube 5)): ++
- protein precipitation ([13]; test substance solution 6.25% (tube 4)): +++
- protein precipitation ([13]; test substance solution 12.5% (tube 3)): +++
- protein precipitation ([13]; test substance solution 25% (tube 2)): +++
- protein precipitation ([13]; test substance solution 50% (tube 1)): +++

Source: patent CN101069680A, “2-羟基-4-甲基苯磺酸制剂的制备及其应用” (BEIJING HUARUI DINGXIN TECHNOLOGY Co Ltd, priority 2007, dated 2007)
